Target: His-tagged recombinant human Gal-3 (hGal-3) (Homo sapiens (Human), UniProt P17931)
Assay: Gal-3 HTRF assay (His-tagged hGal-3 binding to B-ASF);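 note: compounds preincubated 30 min with hGal-3, then 1 h with B-ASF, detection via terbium anti-His antibody and streptavidin d2. Control with B-ASF counts as full signal, omitting B-ASF as background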
Conditions: read-out: hGal IC50

Sequence of His-tagged recombinant human Gal-3 (hGal-3) (P17931 whole entry): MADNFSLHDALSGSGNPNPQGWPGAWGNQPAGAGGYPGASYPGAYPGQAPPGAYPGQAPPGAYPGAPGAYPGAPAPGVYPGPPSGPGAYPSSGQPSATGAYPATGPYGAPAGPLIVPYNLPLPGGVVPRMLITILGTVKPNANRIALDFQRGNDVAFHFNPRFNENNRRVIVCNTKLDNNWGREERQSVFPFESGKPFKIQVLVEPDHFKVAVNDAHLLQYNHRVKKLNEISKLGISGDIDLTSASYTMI

SMILES: Cc1nc([C@@H]2O[C@H](CO)[C@H](O)[C@H](n3cc(-c4cc(F)c5ncccc5c4)nn3)[C@H]2O)n(-c2cc(Cl)ccc2C(F)(F)F)n1 [Example A68]
- IC50: 154 nM

SMILES: Cc1nc([C@@H]2O[C@H](CO)[C@H](O)[C@H](n3cc(-c4c(F)cc(Cl)cc4F)nn3)[C@H]2O)n(-c2cc(Cl)ccc2C(F)(F)F)n1 [Example A69]
- IC50: 56 nM

SMILES: Cc1nc([C@@H]2O[C@H](CO)[C@H](O)[C@H](n3cc(-c4cc(F)c5ccccc5c4)nn3)[C@H]2O)n(-c2ccc3ncsc3c2)n1 [Example A70]
- IC50: 15 nM

SMILES: Cc1nc([C@@H]2O[C@H](CO)[C@H](O)[C@H](n3cc(-c4ccc(Br)c(F)c4)nn3)[C@H]2O)n(-c2cc(Cl)cnc2C(F)(F)F)n1 [Example A71]
- IC50: 49 nM

SMILES: Cc1nc([C@@H]2O[C@H](CO)[C@H](O)[C@H](n3cc(-c4ccc(Cl)c(F)c4F)nn3)[C@H]2O)n(-c2cc(Cl)ccc2Cl)n1 [Example A72]
- IC50: 11 nM

SMILES: Cc1nc([C@@H]2O[C@H](CO)[C@H](O)[C@H](n3cc(-c4ccc(Cl)c(F)c4F)nn3)[C@H]2O)n(-c2cc(Cl)ccc2Br)n1 [Example A73]
- IC50: 10 nM

SMILES: CO[C@@H]1[C@@H](n2cc(-c3ccc(Br)c(F)c3)nn2)[C@@H](O)[C@@H](CO)O[C@H]1c1nc(C)nn1-c1ccc2ncsc2c1 [Example A75]
- IC50: 340 nM

SMILES: COc1cc(-c2cn([C@H]3[C@@H](O)[C@@H](CO)O[C@@H](c4nc(C)nn4-c4cc(Cl)ccc4C(F)(F)F)[C@@H]3O)nn2)ccc1Cl [Example A79]
- IC50: 40 nM

Reference: patent US11267811B2, “Small molecule inhibitors of galectin-3” (BRISTOL-MYERS SQUIBB COMPANY, priority 2017, dated 2022)
